From patent US20160177395A1, “BIOMARKERS FOR THE PREDICTION OF RENAL INJURY” (priority 2007, published 2016)
Values joined by “and” are separate entries in the source; they are usually repeats but may differ in a detail not shown here. Equal entries are not always repeated.

Assays:
[1] = test system: kidney tissues of treated or untreated rats; experiment: Real-time qRT-PCR of signature amplicons, validation stage, labeled and un-labeled samples (Table 23); conditions: for AI045075_DB71_seg6 normalized qRT-PCR expression (Interferon stimulated exonuclease 20 (ISG20) transcript) / H31883_DB71_seg13 normalized qRT-PCR expression (Cyclin-G1 (CCNG1) transcript) / MUSCYCG1R_DB81_seg19-20 normalized qRT-PCR expression / W41270_DB81_seg11 normalized qRT-PCR expression (tumor necrosis factor receptor superfamily, member 12a transcript) / W64472_DB81_seg2 normalized qRT-PCR expression (Interferon stimulated exonuclease 20 (ISG20) transcript) / W83813_DB81_seg27 normalized qRT-PCR expression: labeled samples, listed as ValpA
Summary of the method: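 Each of four signature genes measured as wild-type and alternative-splice amplicons by qRT-PCR in treated or untreated rat kidney. Normalization was two-step: housekeeping-gene factor, then inter-plate correction from shared samples on a shuffled control plate; final values rescaled for display.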

[2] = test system: Sprague-Dawley Crl:CD(SD) rats; conditions: rat, in vivo;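 further: control rats received saline intraperitoneally, and the organs examined were adrenals, brain, kidneys, liver, spleen and thymus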
Description: Control animals were treated intraperitoneal with saline.
Randomization and group allocation: prior to treatment, the animals were assigned to the experimental groups based on their body weight. Mean body weight of each group at randomization was not deviate±20% of the mean population weight. Males and females were randomized separately. For the randomization, a computer program was used.
The day before autopsy, urinalysis was performed and blood samples were taken for hematology and clinical chemistry examinations.
On the day of autopsy the animals were anaesthetized with isoflurane, blood was collected for PBMC isolation then subjected to autopsy. Tissues and organs (adrenals, brain, kidneys, liver, spleen and thymus) were weighed and subjected to gross pathological and histopathological examinations.

[3] = day1, kidney of individual male/female rats
[4] = day5, kidney of individual male/female rats
[5] = day28, kidney of individual male/female rats

CCCC(CCC)C(=O)O [Valproic acid]
AI045075_DB71_seg6 normalized qRT-PCR expression (Interferon stimulated exonuclease 20 (ISG20) transcript) [1, 3]: 1.006 and 1.436 and 2.189 and 0.983 and 1.098 and 1.522
H31883_DB71_seg13 normalized qRT-PCR expression (Cyclin-G1 (CCNG1) transcript) [1, 3]: 1.488 and 1.506 and 0.999 and 0.721 and 1.041
MUSCYCG1R_DB81_seg19-20 normalized qRT-PCR expression [1, 3]: 2.289 and 1.581 and 1.842 and 1.929 and 0.637 and 0.9
W41270_DB81_seg11 normalized qRT-PCR expression (tumor necrosis factor receptor superfamily, member 12a transcript) [1, 3]: 1.134 and 0.939 and 1.405 and 1.225 and 0.547 and 1.544
W64472_DB81_seg2 normalized qRT-PCR expression (Interferon stimulated exonuclease 20 (ISG20) transcript) [1, 3]: 1.082 and 1.123 and 1.887 and 0.995 and 1.092 and 1.596
W83813_DB81_seg27 normalized qRT-PCR expression [1, 3]: 1.179 and 0.912 and 1.495 and 1.13 and 0.818 and 1.366
AI045075_DB71_seg6 normalized qRT-PCR expression (Interferon stimulated exonuclease 20 (ISG20) transcript) [1, 4]: 1.017 and 1.145 and 0.997 and 0.883 and 1.052 and 0.877
H31883_DB71_seg13 normalized qRT-PCR expression (Cyclin-G1 (CCNG1) transcript) [1, 4]: 0.846 and 0.85 and 0.975 and 0.791 and 0.694 and 1.082
MUSCYCG1R_DB81_seg19-20 normalized qRT-PCR expression [1, 4]: 1.019 and 1.509 and 1.372 and 0.94 and 1.425 and 1.585
W41270_DB81_seg11 normalized qRT-PCR expression (tumor necrosis factor receptor superfamily, member 12a transcript) [1, 4]: 0.631 and 1.428 and 1.002 and 0.617 and 0.997
W64472_DB81_seg2 normalized qRT-PCR expression (Interferon stimulated exonuclease 20 (ISG20) transcript) [1, 4]: 0.92 and 1.226 and 1.169 and 0.702 and 0.812 and 0.894
W83813_DB81_seg27 normalized qRT-PCR expression [1, 4]: 0.778 and 1.17 and 0.876 and 0.926 and 1.146 and 0.992
AI045075_DB71_seg6 normalized qRT-PCR expression (Interferon stimulated exonuclease 20 (ISG20) transcript) [1, 5]: 0.696 and 0.906 and 0.669 and 0.822 and 0.77 and 0.719
H31883_DB71_seg13 normalized qRT-PCR expression (Cyclin-G1 (CCNG1) transcript) [1, 5]: 0.732 and 0.774 and 0.713 and 0.872 and 0.57 and 0.979
MUSCYCG1R_DB81_seg19-20 normalized qRT-PCR expression [1, 5]: 0.588 and 1.731 and 0.589 and 1.171 and 1.037 and 0.52
W41270_DB81_seg11 normalized qRT-PCR expression (tumor necrosis factor receptor superfamily, member 12a transcript) [1, 5]: 0.543 and 0.95 and 0.459 and 1.044 and 0.587 and 1.011
W64472_DB81_seg2 normalized qRT-PCR expression (Interferon stimulated exonuclease 20 (ISG20) transcript) [1, 5]: 1.085 and 0.788 and 0.965 and 1.51 and 0.478 and 0.991
W83813_DB81_seg27 normalized qRT-PCR expression [1, 5]: 0.493 and 1.254 and 0.46 and 0.875 and 0.761 and 1.208
Label: true label (Normal/Toxic), known renal toxic effect ([1]; rat, in vivo): Normal
Clinical pathology [2]: Slightly lower total protein and Albumin values were found in males
Histopathology / renal damage [2]: No renal damage was found
Water consumption [2]: Increase in Valproic acid treated females
Water consumption, males [2]: Sight decrease during the last week
